Source: US7012089B2, “[1,4]Diazocino[7,8,1-hi]indole derivatives as antipsychotic and antiobesity agents” (Wyeth, priority 2002, dated 2006)
Structures can show the parent of a compound that is named as a salt. Where two headings read alike, the source gives them in different places.

What was measured:
[1] = target: T1, human 5-hydroxytryptamine-2C (h-5-HT2C) receptor (Homo sapiens, UniProt P28335); assay: [125I]DOI binding to membranes of CHO cells expressing the h-5-HT2C receptor
T1 sequence (P28335 33-458): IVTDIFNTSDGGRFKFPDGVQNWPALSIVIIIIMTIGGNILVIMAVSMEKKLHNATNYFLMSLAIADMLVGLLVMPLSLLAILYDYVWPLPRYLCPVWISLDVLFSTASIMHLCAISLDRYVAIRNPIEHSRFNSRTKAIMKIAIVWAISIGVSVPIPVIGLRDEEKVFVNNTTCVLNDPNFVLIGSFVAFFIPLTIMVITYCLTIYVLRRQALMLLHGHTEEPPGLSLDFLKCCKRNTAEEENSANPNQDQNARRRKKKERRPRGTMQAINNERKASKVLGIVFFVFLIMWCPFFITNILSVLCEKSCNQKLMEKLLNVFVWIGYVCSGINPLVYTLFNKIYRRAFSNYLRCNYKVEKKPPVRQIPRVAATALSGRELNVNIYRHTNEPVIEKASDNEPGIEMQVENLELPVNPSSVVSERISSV

human 5-HT2C receptor = target: T2, human 5-HT2C receptor (Homo sapiens, UniProt P28335); assay: 5-HT2C receptor-stimulated calcium mobilization (FLIPR) in CHO cells; assay type: cell-based; details: for Emax: CHO, read-out: 5-HT2C Function Emax (%)
T2 sequence (P28335 33-458): T1 sequence (P28335 33-458)

[2] = 5-HT2c Affinity KI (nM), displacement of [125I]DOI, CHO cell membranes

## CN1CCc2cccc3c4c(n(c23)CC1)CCC4 [Example 1, 3-Methyl-2,3,4,5,10,11-hexahydro-1H,9H-cyclopenta[b][1,4]diazocino[7,8,1-hi]indole]
[1]; [2]
  Ki: 35 nM
Human 5-HT2C receptor
  EC50: 48 nM
  Emax: 45%
other
  melting point: 128 to 130 °C

## CN1CCc2c(Cl)ccc3c4c(n(c23)CC1)CCCC4 [Example 13, 6-Chloro-3-methyl-2,3,4,5,9,10,11,12-octahydro-1H-[1,4]diazocino[7,8,1-jk]carbazole]
[1]; [2]
  Ki: 34 nM
other
  melting point: 128 to 130 °C

## CN1CCc2c(Cl)ccc3c4c(n(c23)CC1)CCCCC4 [Example 14, 6-Chloro-3-methyl-2,3,4,5,10,11,12,13-octahydro-1H,9H-cyclohepta[b][1,4]diazocino[7,8,1-hi]indole]
[1]; read-out: 5-HT2c Affinity KI
  Ki: 250 nM
other
  melting point: 132 to 134 °C

## CN1CCc2cccc3c4c(n(c23)CC1)CCCC4 [Example 5]
[1]; [2]
  Ki: 10 nM
Human 5-HT2C receptor
  EC50: 68 nM
  Emax: 50%
other
  melting point: 129 to 131 °C

## CN1CCc2c(Cl)ccc3c2N(CC1)C1CCCCCC31 (stereo not drawn) (as salt: fumarate) [Example 16, 6-Chloro-3-methyl-2,3,4,5,9,10,11,12,13,13a-decahydro-1H,8bH-cyclohepta[b][1,4]diazocino[7,8,1-hi]indole]
other
  melting point: 190 to 193 °C

## CN1CCc2ccc(Cl)c3c4c(n(c23)CC1)CCCC4 (as salt: fumarate) [Example 35, 8-Chloro-3-methyl-2,3,4,5,9,10,11,12-octahydro-1H-[1,4]diazocino[7,8,1-jk]carbazole]
other
  melting point: 212 to 214 °C

## Clc1ccc2c3c(n4c2c1CCNCC4)CCC3 (as salt: fumarate) [Example 17, 6-Chloro-2,3,4,5,10,11-hexahydro-1H,9H-cyclopenta[b][1,4]diazocino[7,8,1-hi]indole]
other
  melting point: 188 to 190 °C

## c1cc2c3c(c1)c1c(n3CCNCC2)CCCC1 (as salt: fumarate) [Example 6, 2,3,4,5,9,10,11,12-Octahydro-1H-[1,4]diazocino[7,8,1-jk]carbazole]
other
  melting point: 174 to 176 °C

## CN1CCc2cccc3c2N(CC1)C1CCCCC31 (stereo not drawn) (as salt: fumarate) [Example 7, 3-Methyl-2,3,4,5,8b,9,10,11,12,12a-decahydro-1H-[1,4]diazocino[7,8,1-jk]carbazole]
other
  melting point: 150 to 153 °C

## Fc1ccc2c3c1C1CCCCC1N3CCNCC2 (stereo not drawn) (as salt: fumarate) [Example 31, 8-Fluoro-2,3,4,5,8b,9,10,11,12,12a-decahydro-1H[1,4]diazocino[7,8,1-jk]carbazole]
other
  melting point: 189 to 190 °C

## CN1CCc2c(Cl)ccc3c4c(n(c23)CC1)CCC4 [Example 12, 6-Chloro-3-methyl-2,3,4,5,10,11-hexahydro-1H,9H-cyclopenta[b][1,4]diazocino[7,8,1-hi]indole]
[1]; read-out: 5-HT2c Affinity KI
  Ki: 250 nM
other
  melting point: 138 to 140 °C

## c1cc2c3c(c1)[C@H]1CCC[C@H]1N3CCNCC2 (single isomer, unassigned) (as salt: hydrochloride) [Example 45, (+)-(8bR*,11aR*)-2,3,4,5,9,10,11,11a-Octahydro-1H,8bH-cyclopenta[b][1,4]diazocino[7,8,1-hi]indole]
other
  melting point: > 130 °C

## CN1CCc2ccc(F)c3c2N(CC1)C1CCCC31 (stereo not drawn) (as salt: fumarate) [Example 26, 8-Fluoro-3-methyl-2,3,4,5,9,10,11,11a-octahydro-1H,8bH-cyclopenta[b][1,4]diazocino[7,8,1-hi]indole]
other
  melting point: 180 to 182 °C

## CN1CCc2c(Cl)ccc3c2N(CC1)C1CCCC31 (stereo not drawn) (as salt: fumarate) [Example 15, 6-Chloro-3-Methyl-2,3,4,5,9,10,11,11a-octahydro-1H,8bH-cyclopenta[b][1,4]diazocino[7,8,1-hi]indole]
other
  melting point: 196 to 199 °C

## CN1CCc2cccc3c4c(n(c23)CC1)CCSC4 [Example 11, 3-Methyl-2,3,4,5,11,12-hexahydro-1H,9H-[1,4]diazocino[7,8,1-hi]thiopyrano[4,3-b]indole]
[1]; [2]
  Ki: 38 nM
other
  melting point: 123 to 125 °C

## Clc1ccc2c3c(n4c2c1CCNCC4)CCCC3 (as salt: fumarate) [Example 18, 6-Chloro-2,3,4,5,9,10,11,12-octahydro-1H-[1,4]diazocino[7,8,1-jk]carbazole]
other
  melting point: 208 to 210 °C

## Clc1ccc2c3c1c1c(n3CCNCC2)CCCC1 (as salt: fumarate) [Example 39, 8-Chloro-2,3,4,5,9,10,11,12-octahydro-1H-[1,4]diazocino[7,8,1-jk]carbazole]
other
  melting point: 199 to 201 °C

## CCN1CCc2c(Cl)ccc3c2N(CC1)C1CCCC31 (stereo not drawn) (as salt: fumarate) [Example 21, 6-Chloro-3-ethyl-2,3,4,5,9,10,11,11a-octahydro-1H,8bH-cyclopenta[b][1,4]diazocino[7,8,1-hi]indole]
other
  melting point: 199 to 201 °C

## Fc1ccc2c3c1[C@H]1CCCC[C@H]1N3CCNCC2 (single isomer, unassigned) (as salt: fumarate) [Example 33, (−)-(8bR*,12aR*)-8-Fluoro-2,3,4,5,8b,9,10,11,12,12a-decahydro-1H-[1,4]diazocino[7,8,1-jk]carbazole]
other
  melting point: 94 to 96 °C

## c1cc2c3c(c1)[C@H]1CCCC[C@H]1N3CCNCC2 (single isomer, unassigned) (as salt: fumarate) [Example 47, (+)-(8bR*,12aR*)-2,3,4,5,8b,9,10,11,12,12a-Decahydro-1H-[1,4]diazocino[7,8,1-jk]carbazole]
other
  melting point: 139 to 140 °C
